In PubChem BioAssay AID1918998 (Molecular Pharmacology Branch, DTP, NCI, 2023):

System: 521955-158-R2-J5-PDC complex spheroid growth
Assay: Anticancer human tumor 521955-158-R2-J5-PDC patient-derived pancreatic carcinoma cell line growth inhibition [AhR]
Conditions: for IC50: curve of first compound; for viability, T/C: stronger effect = lower value
Procedure, shortened: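 Spheroids combined tumor cells with HUVEC endothelial cells and human MSCs as stroma. AhR antagonists were paired with standard or investigational drugs, each dosed in half-log steps down from near clinical Cmax, or from 10 microM where Cmax was unknown.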

[1] = second compound 0.1 µM, first compound 0.0316 µM
[2] = second compound 0.1 µM, first compound 0.1 µM
[3] = second compound 0.1 µM, first compound 0.316 µM
[4] = second compound 0.1 µM, first compound 1 µM
[5] = second compound 0.1 µM, first compound 3.16 µM
[6] = second compound 0.1 µM, first compound 10 µM
[7] = second compound 0.316 µM, first compound 0.0316 µM
[8] = second compound 0.316 µM, first compound 0.1 µM
[9] = second compound 0.316 µM, first compound 0.316 µM
[10] = second compound 0.316 µM, first compound 1 µM
[11] = second compound 0.316 µM, first compound 3.16 µM
[12] = second compound 0.316 µM, first compound 10 µM
[13] = second compound 1 µM, first compound 0.0316 µM
[14] = second compound 1 µM, first compound 0.1 µM
[15] = second compound 1 µM, first compound 0.316 µM
[16] = second compound 1 µM, first compound 1 µM
[17] = second compound 1 µM, first compound 3.16 µM
[18] = second compound 1 µM, first compound 10 µM
[19] = second compound 3.16 µM, first compound 0.0316 µM
[20] = second compound 3.16 µM, first compound 0.1 µM
[21] = second compound 3.16 µM, first compound 0.316 µM
[22] = second compound 3.16 µM, first compound 1 µM
[23] = second compound 3.16 µM, first compound 3.16 µM
[24] = second compound 3.16 µM, first compound 10 µM
[25] = second compound 10 µM, first compound 0.0316 µM
[26] = second compound 10 µM, first compound 0.1 µM
[27] = second compound 10 µM, first compound 0.316 µM
[28] = second compound 10 µM, first compound 1 µM
[29] = second compound 10 µM, first compound 3.16 µM
[30] = second compound 10 µM, first compound 10 µM
[31] = second compound 0.1 µM, first compound 0.00316 µM
[32] = second compound 0.1 µM, first compound 0.01 µM
[33] = second compound 0.316 µM, first compound 0.00316 µM
[34] = second compound 0.316 µM, first compound 0.01 µM
[35] = second compound 1 µM, first compound 0.00316 µM
[36] = second compound 1 µM, first compound 0.01 µM
[37] = second compound 3.16 µM, first compound 0.00316 µM
[38] = second compound 3.16 µM, first compound 0.01 µM
[39] = second compound 10 µM, first compound 0.00316 µM
[40] = second compound 10 µM, first compound 0.01 µM
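For viability, T/C in this document: spheroids mix tumor cells with HUVEC endothelium and human MSC stroma; luminescence taken as viability surrogate after a week of drug exposure.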

Compound | IC50 (second compound 0.1 µM) [nM] | IC50 (second compound 0.316 µM) [nM] | IC50 (second compound 1 µM) [nM] | IC50 (second compound 3.16 µM) [nM] | IC50 (second compound 10 µM) [nM] | viability, T/C [1] [%] | viability, T/C [2] [%] | viability, T/C [3] [%] | viability, T/C [4] [%] | viability, T/C [7] [%] | viability, T/C [8] [%] | viability, T/C [9] [%] | viability, T/C [10] [%] | viability, T/C [13] [%] | viability, T/C [14] [%] | viability, T/C [15] [%] | viability, T/C [19] [%] | viability, T/C [20] [%] | viability, T/C [25] [%] | viability, T/C [26] [%] | also measured
CC(C)c1c(-c2ccccc2)nc2c(C#N)c[nH]n2c1=O + CC(CO)NC(=O)c1cc(-c2ccc(Cl)cc2)nn(-c2cnn(C)c2)c1=O | > 10000 | > 10000 | > 10000 | > 10000 | > 10000 | 91 | 83.6 | 89.4 | 91.4 | 80.1 | 103 | 75.7 | 86.1 | 82.1 | 89.4 | 93.5 | 98.5 | 93.7 | 84.5 | 81.2 | viability, T/C [5]: 66.3%; viability, T/C [6]: 78.2%; viability, T/C [11]: 73.3%; viability, T/C [12]: 88.5%; viability, T/C [16]: 94.2%; viability, T/C [17]: 70.7%; viability, T/C [18]: 51.9%; viability, T/C [21]: 97%; viability, T/C [22]: 96.5%; viability, T/C [23]: 72%; viability, T/C [24]: 70%; viability, T/C [27]: 86.4%; viability, T/C [28]: 71.8%; viability, T/C [29]: 54.6%; viability, T/C [30]: 54.7%
COc1ccc([C@@H](O)c2cc(-c3ncnc4cc(N5CCOCC5)ccc34)c(F)cc2Cl)nn1 + CC(CO)NC(=O)c1cc(-c2ccc(Cl)cc2)nn(-c2cnn(C)c2)c1=O | > 10000 | 3860 | 5970 | 2970 | 1900 | 94.8 | 90.2 | 95.7 | 89.7 | 82.4 | 98.9 | 99.9 | 83 | 114 | 101 | 96.7 | 104 | 86.2 | 87.7 | 88.9 | viability, T/C [5]: 61.2%; viability, T/C [6]: 50.9%; viability, T/C [11]: 52.3%; viability, T/C [12]: 41.5%; viability, T/C [16]: 79.3%; viability, T/C [17]: 61.7%; viability, T/C [18]: 40.3%; viability, T/C [21]: 116%; viability, T/C [22]: 73%; viability, T/C [23]: 54.6%; viability, T/C [24]: 42.7%; viability, T/C [27]: 79.3%; viability, T/C [28]: 57.9%; viability, T/C [29]: 44.8%; viability, T/C [30]: 35.5%
CC[C@@]1(O)C(=O)OCc2c1cc1n(c2=O)Cc2cc3c(CN(C)C)c(O)ccc3nc2-1 + Cc1ccccc1N=Nc1ccc(NC(=O)c2ccnn2C)c(C)c1 | 27.2 | 17.5 | 26.9 | 22.2 | 43.9 | 45.7 | 23 | – | – | 34.7 | 25.2 | – | – | 44.6 | 22.9 | – | 41.1 | 25.6 | 59.9 | 26.3 | viability, T/C (second compound 0.1 µM, first compound 0.000316 µM): 76.7%; viability, T/C (second compound 0.1 µM, first compound 0.001 µM): 79.3%; viability, T/C [31]: 89.5%; viability, T/C [32]: 78.6%; viability, T/C (second compound 0.316 µM, first compound 0.000316 µM): 92.1%; viability, T/C (second compound 0.316 µM, first compound 0.001 µM): 100%; viability, T/C [33]: 88.8%; viability, T/C [34]: 64.7%; viability, T/C (second compound 1 µM, first compound 0.000316 µM): 98.2%; viability, T/C (second compound 1 µM, first compound 0.001 µM): 113%; viability, T/C [35]: 114%; viability, T/C [36]: 87.8%; viability, T/C (second compound 3.16 µM, first compound 0.000316 µM): 119%; viability, T/C (second compound 3.16 µM, first compound 0.001 µM): 131%; viability, T/C [37]: 122%; viability, T/C [38]: 77.3%; viability, T/C (second compound 10 µM, first compound 0.000316 µM): 130%; viability, T/C (second compound 10 µM, first compound 0.001 µM): 122%; viability, T/C [39]: 131%; viability, T/C [40]: 107%
COc1cc(C2c3cc4c(cc3C(OC3OC5COC(C)OC5C(O)C3O)C3COC(=O)C23)OCO4)cc(OC)c1O (stereo not given) + Cc1ccccc1N=Nc1ccc(NC(=O)c2ccnn2C)c(C)c1 | 755 | 668 | 1010 | 880 | 1580 | 99.3 | 78.2 | 81.2 | 39 | 83.6 | 108 | 83.4 | 31.9 | 131 | 97.3 | 80 | 139 | 118 | 131 | 140 | viability, T/C [5]: 26%; viability, T/C [6]: 17.6%; viability, T/C [11]: 23.9%; viability, T/C [12]: 20%; viability, T/C [16]: 49%; viability, T/C [17]: 22.8%; viability, T/C [18]: 18.4%; viability, T/C [21]: 104%; viability, T/C [22]: 40.6%; viability, T/C [23]: 27.3%; viability, T/C [24]: 17.9%; viability, T/C [27]: 112%; viability, T/C [28]: 59.9%; viability, T/C [29]: 38.5%; viability, T/C [30]: 22.9%
COc1cccc2c1C(=O)c1c(O)c3c(c(O)c1C2=O)CC(O)(C(=O)CO)CC3OC1CC(N)C(O)C(C)O1 (stereo not given) + Cc1ccccc1N=Nc1ccc(NC(=O)c2ccnn2C)c(C)c1 | < 31.6 | 36.9 | 42.1 | < 31.6 | 165 | 40.6 | 34.4 | 28.5 | 6.16 | 53.9 | 33.6 | 34 | 7.86 | 55 | 34.9 | 30.1 | 55.6 | 39.9 | 89.7 | 63 | viability, T/C [5]: 2.14%; viability, T/C [6]: 9.5%; viability, T/C [11]: 3.02%; viability, T/C [12]: 11.5%; viability, T/C [16]: 4.75%; viability, T/C [17]: 2.47%; viability, T/C [18]: 11.2%; viability, T/C [21]: 34.3%; viability, T/C [22]: 6.42%; viability, T/C [23]: 4.98%; viability, T/C [24]: 9.42%; viability, T/C [27]: 34.4%; viability, T/C [28]: 3.83%; viability, T/C [29]: 2.39%; viability, T/C [30]: 7.28%
Nc1ncn(C2CC(O)C(CO)O2)c(=O)n1 (stereo not given) + Cc1ccccc1N=Nc1ccc(NC(=O)c2ccnn2C)c(C)c1 | > 1000 | 811 | > 1000 | > 1000 | > 1000 | 92.4 | 62.6 | 55.5 | 50.7 | 86.6 | 83.8 | 61.9 | 47.4 | 96.6 | 90.2 | 94.2 | 110 | 88.3 | 140 | 127 | viability, T/C [31]: 79%; viability, T/C [32]: 86.1%; viability, T/C [33]: 88.5%; viability, T/C [34]: 104%; viability, T/C [35]: 90.5%; viability, T/C [36]: 126%; viability, T/C [16]: 65.4%; viability, T/C [37]: 106%; viability, T/C [38]: 120%; viability, T/C [21]: 104%; viability, T/C [22]: 67.1%; viability, T/C [39]: 138%; viability, T/C [40]: 147%; viability, T/C [27]: 95.2%; viability, T/C [28]: 88%
